Counter-ions that a name gives are not always drawn.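 In this assay, cells in 96-well plates receive the compound at five concentrations for 48 hours. Endpoints are linearly interpolated between the surrounding concentrations. Abbreviation: GI50, concentration required for 50% inhibition of growth.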 Calls of active or inactive are those of the source. Cut-off read from the data, not from the text of the source: active = GI50 up to about 1.1 µM and inactive = higher. Non-standard residues stand in square brackets, D forms with d. Residues, ends and D or L forms follow the SMILES beside them. ξ: configuration not given here. *: point of attachment. ξNMeF = CNC(Cc1ccccc1)C(=O)O; NMeV = CN[C@H](C(=O)O)C(C)C; Boc = CC(C)(C)OC(=O)*; OBn = c1ccc(CO*)cc1
Key:
Test in all cases: NCI-60 cell line screen, 48 h
[1] = system: Malme-3M
[2] = system: UO-31
[3] = system: SNB-78
[4] = system: TK-10
[5] = system: HCT-116
[6] = system: 786-0
[7] = system: NCI-H226
[8] = system: KM12
[9] = system: ACHN
[10] = system: NCI-H23
[11] = system: COLO 205
[12] = system: OVCAR-3
[13] = system: A549
[14] = system: SK-MEL-28
[15] = system: RPMI-8226
[16] = system: DMS-273
[17] = system: T47D
[18] = system: MDA-MB-435
[19] = system: BT-549
[20] = system: DU-145

Measured: GI50

CN1C(=O)CC2(C)c3cc(C=O)ccc3N(C)C12 (stereo unspecified)
inactive: [1] > 100 µM | [2] > 100 µM | [3] > 100 µM | [4] > 100 µM | [5] > 100 µM | [6] > 100 µM | [7] > 100 µM | [8] > 100 µM | [9] > 100 µM | [10] > 100 µM | [11] > 100 µM | [12] > 100 µM | [13] > 100 µM | [14] > 100 µM

COP(=O)(OC)C(=O)N1N(c2ccc([N+](=O)[O-])cc2)C(=O)C(C)NC1(NNc1ccc([N+](=O)[O-])cc1)P(=O)(OC)OC (stereo unspecified)
inactive: [1] > 100 µM | [2] > 100 µM | [4] > 100 µM | [15] > 100 µM | [5] > 100 µM | [6] > 100 µM | [7] > 100 µM | [16] > 100 µM | [8] > 100 µM | [9] > 100 µM | [10] > 100 µM | [11] > 100 µM | [12] > 100 µM | [13] > 100 µM | [14] > 100 µM

CNC(=O)CCCN(C)C(=O)CCCCC(=O)N(C)C
inactive: [1] 33.5 µM | [2] > 61 µM | [4] > 56.8 µM | [15] > 57.1 µM | [5] > 57.5 µM | [6] > 55.3 µM | [7] > 67.8 µM | [8] > 59.7 µM | [17] 35 µM | [9] > 61.1 µM | [10] > 60.1 µM | [18] > 56 µM | [19] > 62.8 µM | [11] > 57.7 µM | [12] > 92.3 µM | [13] > 57.1 µM | [14] > 54.2 µM | [20] > 58.5 µM

O=C1c2ccccc2C(=O)C2C1C1C(=O)c3ccccc3C(=O)C21 (stereo unspecified)
inactive: [1] 55.1 µM | [2] > 100 µM | [4] > 100 µM | [6] > 100 µM | [16] > 100 µM | [8] 49.7 µM | [9] > 100 µM | [10] 99.1 µM | [11] > 100 µM | [12] 40.6 µM | [13] > 100 µM | [14] > 100 µM

CC(=O)C(=N\Nc1ccc(Cl)cc1)/C(C)=N/c1ccc(C)cc1
inactive: [1] 20.7 µM | [2] 30.1 µM | [4] 33.5 µM | [15] 18.7 µM | [5] 36.8 µM | [6] 37.2 µM | [7] 29.6 µM | [8] 27.1 µM | [17] 38.5 µM | [9] 21.9 µM | [10] 38.1 µM | [18] 30.4 µM | [19] 51.4 µM | [11] 21.3 µM | [12] 24.6 µM | [13] 29.3 µM | [14] 48.8 µM | [20] 30.8 µM

CC(=O)O[C@H]1C[C@H]2C(=S)Nc3ccccc3C(=S)N2C1
inactive: [1] > 100 µM | [2] > 100 µM | [4] > 100 µM | [15] > 100 µM | [5] > 100 µM | [6] > 100 µM | [7] > 100 µM | [8] > 100 µM | [17] > 100 µM | [9] > 100 µM | [10] > 100 µM | [18] > 100 µM | [19] > 100 µM | [11] > 100 µM | [12] > 100 µM | [13] > 100 µM | [14] > 100 µM | [20] > 100 µM

O=C(N/C(=C\c1ccccc1Cl)c1nc2ccccc2[nH]1)c1ccccc1
inactive: [1] 23.5 µM | [2] 11.2 µM | [3] 45.6 µM | [4] 76.4 µM | [6] 32.7 µM | [8] 32.5 µM | [9] 30.5 µM | [10] 25.1 µM | [11] 34.6 µM | [12] 29.7 µM | [13] 26.7 µM | [14] 40.9 µM

C=C1c2[nH]c3ccccc3c2C2C(CC)C1CCN2C (stereo unspecified)
inactive: [1] 24.3 µM | [2] > 100 µM | [4] 33.3 µM | [15] 32.5 µM | [5] 51.2 µM | [6] > 100 µM | [7] 6.62 µM | [8] > 100 µM | [17] > 100 µM | [9] > 100 µM | [10] > 100 µM | [18] 65.9 µM | [19] > 100 µM | [11] 16.7 µM | [12] > 100 µM | [13] > 100 µM | [14] 29.5 µM | [20] > 100 µM

Cn1c(-c2ccco2)ccc1-c1ccc(C=O)o1
inactive: [1] > 100 µM | [2] 46.7 µM | [4] > 100 µM | [15] 29 µM | [5] 24.2 µM | [6] > 100 µM | [7] > 100 µM | [8] > 100 µM | [17] 38.1 µM | [9] 49.7 µM | [10] 94.6 µM | [18] 68.1 µM | [19] 95.7 µM | [11] > 100 µM | [12] 45.6 µM | [13] > 100 µM | [14] 48.6 µM | [20] 52.4 µM

COP1(=O)Oc2ccccc2C(=O)C(C(F)(F)F)(C(F)(F)F)O1 (stereo unspecified)
inactive: [2] > 100 µM | [4] > 100 µM | [15] 42.9 µM | [5] > 100 µM | [6] > 100 µM | [16] > 100 µM | [8] > 100 µM | [9] > 100 µM | [10] > 100 µM | [11] > 100 µM | [13] > 100 µM | [14] > 100 µM

CC(C)[C@@H](C(=O)N(C)[C@H](C(=O)N1CCC[C@H]1C(=O)OCc1ccccc1)C(C)C)N(C)C(=O)C(Cc1ccccc1)N(C)C(=O)[C@H](NC(=O)OC(C)(C)C)C(C)C (stereo partly specified) (Boc-[dV][ξNMeF][NMeV][NMeV]P-OBn)
inactive: [1] > 84.9 µM | [2] > 31.6 µM | [4] > 31.6 µM | [15] 10.4 µM | [5] > 31.6 µM | [6] > 46.8 µM | [7] > 100 µM | [16] > 31.6 µM | [8] > 10 µM | [11] > 82.6 µM | [12] > 34.5 µM | [13] > 31.6 µM | [14] > 31.6 µM

Oc1ccc(C(O)C2CCCCN2)cc1O (stereo unspecified) [RIMITEROL HYDROBROMIDE]
inactive: [1] > 100 µM | [2] 32.1 µM | [4] > 100 µM | [15] 54.7 µM | [5] > 100 µM | [6] 18.9 µM | [7] > 100 µM | [8] > 100 µM | [17] 23.8 µM | [9] > 100 µM | [10] > 100 µM | [18] > 100 µM | [19] > 100 µM | [11] > 100 µM | [12] > 100 µM | [13] > 100 µM | [14] > 100 µM | [20] > 100 µM
